Results as given in paper PMC9866940 (Viruses, 2022).
Counter-ions that a name gives are not always drawn. Like-named read-outs stand apart in the source and are kept apart here.

Tests used:
LASV MG = experiment: microbe, parasite or virus in culture; assay type: cell-based, Lassa virus (LASV); settings: for inhibition of LASV MG activity (rescreening): 5 µM; for inhibition at 5 µM: Huh-7, read-out: inhibition of LASV MG activity (rescreening)
JUNV MG = experiment: microbe, parasite or virus in culture; assay type: cell-based, Junin virus (JUNV)
JUNV (Candid #1 strain) = experiment: microbe, parasite or virus in culture; assay type: cell-based, Junin virus (JUNV)
Huh-7 cells = settings: 5 µM
A549 cells [1] = test system: A549 cells
LCMV (rLCMV.Arm) = experiment: microbe, parasite or virus in culture; assay type: cell-based, lymphocytic choriomeningitis virus (LCMV)
in vitro [2] = settings: human
LCMV MG = assay type: cell-based, lymphocytic choriomeningitis virus (LCMV); settings: 5 µM
A549 cells [3] = test system: A549 cells; remark: listed apart in the source
in vitro [4] = settings: human; remark: listed apart in the source
in vitro [5] = settings: human; remark: listed apart in the source
in vitro [6] = settings: human; remark: listed apart in the source
[7] = Mammarenavirus lassaense, Huh-7
[8] = Mammarenavirus juninense, Huh-7
[9] = Mammarenavirus juninense, A549, 48 h
[10] = Mammarenavirus choriomeningitidis, A549, 24 h

COc1c(C)c2c(c(O)c1C/C=C(\C)CCC(=O)O)C(=O)OC2 [MPA, mycophenolic acid]
IC50 (LASV MG; [7]): 0.37 µM | IC50 (JUNV MG; [8]): 0.42 µM | IC50 (JUNV (Candid #1 strain); [9]): 0.97 µM

CCN(CC)CCCC(C)Nc1c2ccc(Cl)cc2nc2ccc(OC)cc12 (stereo not shown) [QDD, quinacrine dihydrochloride dihydrate]
IC50 (LASV MG): 1.28 µM | inhibition of LASV MG activity (rescreening) (LASV MG): at least 90% | IC50 (JUNV MG): 1.46 µM | IC50 (JUNV (Candid #1 strain)): 4.66 µM | cell viability (rescreening) (Huh-7 cells; human): > 70% | CC50 (A549 cells [1]; human): 27.9 µM

CN(C)CCN1C(=O)c2cccc3cc(N)cc(c23)C1=O [amonafide]
IC50 (LASV MG; [7]): 2.89 µM | IC50 (JUNV MG; [8]): 2.9 µM | IC50 (JUNV (Candid #1 strain); [9]): 5.75 µM | IC50 (LCMV (rLCMV.Arm); [10]): 10 µM | CC50 (in vitro [2]): ≥ 40 µM

Cc1c2ccncc2c(C)c2c1[nH]c1ccccc12.Cl [ellipticine hydrochloride]
IC50 (LASV MG; read-out: IC50): 0.76 µM | IC50 (JUNV MG; read-out: IC50): 0.76 µM | inhibition of LCMV MG activity (LCMV MG): 95% | IC50 (JUNV (Candid #1 strain); read-out: IC50): 1.73 µM | IC50 (LCMV (rLCMV.Arm); read-out: IC50): 1.5 µM | CC50 (A549 cells [1]): 32.5 µM | CC50 (A549 cells [3]): ≥ 20 µM

CC(=O)[C@]1(O)Cc2c(O)c3c(c(O)c2[C@@H](O[C@H]2C[C@H](N)[C@H](O)[C@H](C)O2)C1)C(=O)c1ccccc1C3=O [idarubicin hydrochloride]
IC50 (LASV MG; [7]): 0.06 µM | IC50 (JUNV MG; [8]): 0.12 µM | IC50 (JUNV (Candid #1 strain); [9]): 2.56 µM | IC50 (LCMV (rLCMV.Arm); [10]): 0.59 µM | CC50 (in vitro [2]): 0.79 µM

NCCNc1ccc(NCCN)c2c1C(=O)c1ccncc1C2=O.O=C(O)/C=C\C(=O)O.O=C(O)/C=C\C(=O)O [pixantrone maleate]
inhibition of LASV MG activity (rescreening) (LASV MG): at least 90% | IC50 (LASV MG; read-out: IC50): 1.01 µM | IC50 (JUNV MG; read-out: IC50): 1.81 µM | IC50 (JUNV (Candid #1 strain); read-out: IC50): 3.66 µM | IC50 (LCMV (rLCMV.Arm); read-out: IC50): 4.75 µM | cell viability (rescreening) (Huh-7 cells): > 70% | CC50 (A549 cells [1]): 30.3 µM | CC50 (A549 cells [3]): ≥ 40 µM

Nc1ccc2cc3ccc(N)cc3nc2c1 [proflavine]
IC50 (LASV MG; [7]): 1.04 µM | inhibition at 5 µM (LASV MG; Mammarenavirus lassaense): ≥ 90% | IC50 (JUNV MG; [8]): 1.36 µM | IC50 (JUNV (Candid #1 strain); [9]): 2.45 µM | viability at 5 µM (in vitro [4]): > 70%

CCN(CC)CCCC(C)Nc1c2ccc(Cl)cc2nc2ccc(OC)cc12 (stereo not shown) [quinacrine dihydrochloride]
IC50 (LASV MG; [7]): 1.67 µM | inhibition at 5 µM (LASV MG; Mammarenavirus lassaense): ≥ 90% | IC50 (JUNV MG; [8]): 1.51 µM | IC50 (JUNV (Candid #1 strain); [9]): 7.33 µM | viability at 5 µM (in vitro [4]): > 70%

NC(=O)c1ncn([C@@H]2O[C@H](CO)[C@@H](O)[C@H]2O)n1 [ribavirin, Ribavirin]
IC50 (LASV MG; [7]): 15.4 µM | IC50 (JUNV MG; [8]): 38.2 µM | IC50 (JUNV (Candid #1 strain); [9]): 45.4 µM | IC50 (LCMV (rLCMV.Arm); [10]): 20.2 µM | CC50 (in vitro [4]; CC50): ≥ 200 µM | CC50 (in vitro [5]): ≥ 200 µM | CC50 (in vitro [6]): ≥ 200 µM | CC50 (in vitro [2]): ≥ 100 µM

CN[C@H]1CN(c2ccc3c(=O)c(C(=O)O)cn(-c4nccs4)c3n2)C[C@@H]1OC [voreloxin (SNS 595) hydrochloride]
IC50 (LASV MG; read-out: IC50): 1.82 µM | IC50 (JUNV MG; read-out: IC50): 1.15 µM | IC50 (JUNV (Candid #1 strain); read-out: IC50): 5.23 µM | IC50 (LCMV (rLCMV.Arm); read-out: IC50): 8.5 µM | CC50 (A549 cells [1]): 13.3 µM | CC50 (A549 cells [3]): ≥ 40 µM
